The source of these data is article PMC12583694, “RNF114 and RNF166 exemplify reader-writer E3 ligases that extend K11 polyubiquitin onto sites of MARUbylation” (The EMBO Journal, 2025).

The target of one test is T1, RNF114 (Homo sapiens, UniProt Q9Y508).
T1 construct: full-length RNF114, N-terminal His-3C fusion (pOPIN-B), expressed in E. coli Rosetta; cobalt resin and gel filtration
Nature of the test: fluorescence polarization. It is filed as binding. Conditions: labelled compound; unreliable (estimated, saturation not reached); pH 7.4, 150 mM NaCl, 0.1 mg/mL BSA, 1 mM TCEP, 22 °C.

Test [1] concerns the target T2, AF1521 macrodomain (GST-AF1521) (Archaeoglobus fulgidus, UniProt O28751).
T2 construct: gene AF_1521; GST-AF1521 plasmid (gift from M. Nielsen), purified as previously reported
T2 sequence (O28751 1-192): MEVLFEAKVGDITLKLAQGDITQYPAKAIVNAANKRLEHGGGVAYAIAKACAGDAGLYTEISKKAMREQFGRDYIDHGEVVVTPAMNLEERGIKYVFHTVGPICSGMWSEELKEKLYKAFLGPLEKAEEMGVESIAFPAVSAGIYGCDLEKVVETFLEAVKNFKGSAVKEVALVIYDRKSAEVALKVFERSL
The test is described as follows: fluorescence polarization. Conditions: labelled compound; pH 7.4, 150 mM NaCl, 0.1 mg/mL BSA, 1 mM TCEP, 22 °C; one-site total binding fit. A general note: In fluorescence polarisation assays a small probe gives low polarisation when free and higher when bound to something large.

T1 sequence (Q9Y508 whole entry, the tested form may be a part): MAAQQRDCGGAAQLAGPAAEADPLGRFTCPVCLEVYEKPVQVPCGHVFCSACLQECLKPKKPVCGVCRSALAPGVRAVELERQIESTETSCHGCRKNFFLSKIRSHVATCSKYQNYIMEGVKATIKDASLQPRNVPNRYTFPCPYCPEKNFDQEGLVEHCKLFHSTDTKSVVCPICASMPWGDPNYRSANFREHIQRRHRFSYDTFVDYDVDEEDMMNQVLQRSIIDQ

As a reminder, the Kd is a measure of binding affinity in units of concentration. With ADPr^T, the Kd was ~ 40 µM at RNF114 and 1200 nM in test [1].
